Experimental data as given in patent US20200009118A1, “COMPOSITIONS AND METHODS FOR THE TREATMENTOF NEURODEGENERATIVE AND OTHER DISEASES” (Glialogix, Inc., priority 2017, published 2020).

Experiments:
[1] = for Cmax GB: pH 2; for AUC / Cmax IB: pH 5.5
[2] = cited from earlier work
[3] = test system: SOD1^G93A transgenic mice; conditions: cited from earlier work
[4] = test system: IL1-beta mRNA in primary rat microglial cells; assay: qPCR of IL1-beta mRNA in primary microglia; type: cell-based; conditions: control gene gamma-actin
Procedure: (§1) Following 24 hours, cells were then mixed and aliquoted in to 96 wells at 7,000-20,000 cells per well in fresh media, either complete media (microglia) or minimal media (100 mL Neurobasal Media (#12348-017, Life Tech) supplemented with 1 mL N2 supplement (#17502-048, Life Tech) and 0.5 mM GlutaMax (#35050-061, Life Tech). Compounds to be tested were then added at the indicated concentrations and cells harvested 18 hours later by centrifugation at 2000×g, 5 minutes at 4° C. mRNA was isolated from the cells by use of the Purelink microscale RNA extraction kit (Catalog #12183016, Life Technologies) kit and the mRNA resuspended in 12-22 μl of RNase-free water according to the manufacturer's instructions. cDNA was prepared by use of the Superscript VILO kit (Catalog #11755050, Life Technologies) according to the manufacturer's instructions. The cDNA was eluted in a final volume of 20 μl RNase-free water and 4 μl was used for each qPCR reaction. For the real-time qPCR reactions, primers and reagents were supplied by Life Technologies and used according to the manufacturer's instructions. The detection molecule was the TaqMan probe with FAM dye label on 5′ end that binds to non-labeled primer pairs. The qPCR machine was a model 7500 Fast Real Time machine from ABI and used according to the manufacturer's instructions. 4 μl of the cDNA reaction was used for each qPCR reactions in a final volume of 20 μl. […] mRNA levels were quantitated by measuring the Cycle threshold (Ct) for each qPCR reaction using the standard algorithm supplied with the ABI 7500 Fast qPCR machine without modification. The Ct is defined as the number of cycles required for the fluorescent signal to cross the threshold (e.g. exceeds background level). […] The Cycle threshold is abbreviated Ct. The change in Ct equals [Ct (minus test agent)−Ct (plus test agent)]. Changes in Ct of the test genes xCT and IL1-beta are normalized by subtracting the change in Ct of the control gene, either gamma-actin or Hypoxanthine-guanine phosphoribosyl transferase (HPRT). […] Using the methods described in Example 11, various agents reported to cause activation of neuroinflammatory cells and/or known to cause or reflect damage to neurons, axons and/or oligodendrocytes were tested for their effect on xCT levels in primary rat microglia.

[5] = test system: xCT mRNA in primary rat microglial cells; assay: qPCR of xCT mRNA in primary microglia; type: cell-based; conditions: control gene gamma-actin
Procedure: as §1

[6] = test system: xCT mRNA in primary rat astrocyte cells; assay: qPCR of xCT mRNA in primary astrocytes; type: cell-based; conditions: astrocyte media, control gene gamma-actin
Procedure: (§2) Primary rat astrocyte cells were purchased from All Cells (Catalog #RCTX-001F, Alameda, Calif.), thawed and resuspended in 13.4 ml of DMEM media (Catalog #12-614F, Lonza, Allendale, N.J.) supplemented with 15% v/v FBS (Catalog #F4135, Sigma-Aldrich, St. Louis, Mo.) and 560 μL aliquoted into wells in a 24-well plate. Cells were incubated at 37° C. with 5% CO2. For each qPCR experiment, 2-3 wells (approximately 42,000-63,000 cells) were transferred to a new 24-well plate with fresh astrocyte media, composed of 50% v/v DMEM, 50% v/v Neurobasal media (Catalog #12348-017), Life Technologies, supplemented with 2 mM glutamine, 300 μM L-cystine. Following 24 hours, cells were then mixed and aliquoted into 24 well plates at approximately 10,000 cells per well in the same media. Compounds to be tested were then added at the indicated concentrations and cells harvested 18 hours later by washing once with PBS (Catalog #P5493, Sigma-Aldrich) and then treated with 300 μl of StemProAccutase cell dissociation reagent (Catalog #A11105-01, Life Technologies) and incubated for 5-10 minutes at 37° C. PBS (300 μl) was added and the cells spun down in a microfuge for 5 minutes at 2,000×g at 4° C. The supernatant was removed and mRNA was isolated from the cells by using the Purelink microscale RNA extraction kit (Catalog #12183016, Life Technologies) according to the manufacturer's instructions. The mRNA resuspended in 12-22 μl of RNase-free water. cDNA was prepared by use of the Superscript VILO kit (Catalog #11755050, Life Technologies) according to the manufacturer's instructions. The cDNA was eluted in a final volume of 20 μl RNase-free water in and 4 μl was used for each qPCR reaction. qPCR reactions and primers were as described in Example 11.
(§3) To determine if tunicamycin increased levels of xCT mRNA, Tunicamycin (5 ng/ml) was added to the primary astrocyte cell cultures in astrocyte media. xCT gene expression was determined by qPCR after 18 hours of exposure to tunicamycin.
(§4) The Cycle threshold is abbreviated Ct. The change in Ct equals [Ct (minus test agent)−Ct (plus test agent)]. Changes in Ct of the test genes xCT and Lcn-2 are normalized by subtracting the change in Ct of the control gene, either gamma-actin or Hypoxanthine-guanine phosphoribosyl transferase (HPRT). Ct values are converted to absolute values by the formula: absolute value=2^^(normalized change in Ct). Absolute values are converted to percent change by multiplying the absolute value by 100.
(§5) Using the methods described in Example 11, various agents known to cause activation of neuroinflammatory cells and/or cause or reflect stress and damage to neurons, axons and/or oligodendrocytes were tested for causing an increase in xCT levels in primary rat astrocytes.

[7] = test system: Lcn-2 mRNA in primary rat astrocyte cells; assay: qPCR of Lcn-2 mRNA in primary astrocytes; type: cell-based; conditions: astrocyte media, control gene gamma-actin
Procedure: as §2, §3, §4, §5

xCT = biological target: T1, xCT (Rattus norvegicus, UniProt A0A8I6AB70); assay: Extracellular glutamate from primary astrocytes (Amplex Red Glutamic Acid/Glutamate Oxidase Assay); type: cell-based; conditions: TNF-alpha 100 μg/ml 18 hours in astrocyte media, no sulfasalazine
T1 construct: host or cells: primary rat astrocytes
T1 sequence (A0A8I6AB70 1-502): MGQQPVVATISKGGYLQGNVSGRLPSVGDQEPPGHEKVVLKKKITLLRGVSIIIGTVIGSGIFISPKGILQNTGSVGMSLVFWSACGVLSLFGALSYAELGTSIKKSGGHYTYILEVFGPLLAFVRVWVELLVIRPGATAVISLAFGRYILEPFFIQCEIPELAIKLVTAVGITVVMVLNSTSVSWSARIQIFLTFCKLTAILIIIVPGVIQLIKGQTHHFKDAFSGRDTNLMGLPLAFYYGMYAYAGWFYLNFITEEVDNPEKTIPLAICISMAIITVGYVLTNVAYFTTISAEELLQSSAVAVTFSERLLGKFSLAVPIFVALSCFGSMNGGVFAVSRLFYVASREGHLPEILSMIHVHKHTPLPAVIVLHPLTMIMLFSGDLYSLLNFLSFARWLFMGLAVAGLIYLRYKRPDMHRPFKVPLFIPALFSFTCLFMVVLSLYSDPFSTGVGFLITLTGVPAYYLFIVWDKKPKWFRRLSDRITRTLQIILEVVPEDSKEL
T1 sequence (Q794F9 whole entry partner): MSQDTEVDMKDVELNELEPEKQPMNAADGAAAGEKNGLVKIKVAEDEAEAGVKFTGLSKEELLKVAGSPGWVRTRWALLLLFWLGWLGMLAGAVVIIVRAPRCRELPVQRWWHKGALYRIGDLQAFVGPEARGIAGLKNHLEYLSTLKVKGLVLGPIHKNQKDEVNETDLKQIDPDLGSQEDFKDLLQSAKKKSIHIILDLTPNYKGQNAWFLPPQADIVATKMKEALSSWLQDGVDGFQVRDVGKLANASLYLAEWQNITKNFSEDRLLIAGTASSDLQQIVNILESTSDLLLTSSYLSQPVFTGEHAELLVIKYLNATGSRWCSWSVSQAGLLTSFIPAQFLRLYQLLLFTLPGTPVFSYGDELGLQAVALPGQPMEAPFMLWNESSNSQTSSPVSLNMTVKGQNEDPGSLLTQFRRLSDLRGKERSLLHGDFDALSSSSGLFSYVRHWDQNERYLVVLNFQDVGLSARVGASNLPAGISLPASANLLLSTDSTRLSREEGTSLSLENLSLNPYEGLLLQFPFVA
Source text: xCT is a cystine-glutamate exchange protein that imports extracellular cystine in exchange for exporting intracellular glutamate. xCT activity can be measured by measuring the level of the extracellular glutamate that is exported. For detection of extracellular glutamate, the Amplex Red Glutamic Acid/Glutamate Oxidase Assay Kit from Life Technologies (Catalog #A-1222, Grand Island, N.Y.) was used following the manufacturer's instructions. Fluorescence from the Amplex Red fluorophore is directly proportional to glutamate concentration and was detected on an Enspire plate reader (Perkin-Elmer (Model #2300, Santa Clara, Calif.) with excitation wavelength at 530 nm and detection wavelength at 590 nm according to the manufacturer's instructions.
Astrocytes were grown in 24-well microtiter plates at a density of approximately 10,000 cells/well in a total volume of 400 μl of astrocyte media. Cells were incubated 18 hours in either astrocyte media plus 100 μM cystine (Catalog #C8755; Sigma-Aldrich) or astrocyte media plus 100 μM cystine plus TNF-alpha (100 μg/ml). After 18 hours, the media was removed and the adherent astrocytes washed twice with PBS and then 400 μL of minimal media was added to the cells. The minimal media was EBSS (catalog #E3024, Sigma-Aldrich) supplemented with 100 μM cystine and 10 mM D-glucose (catalog #G8769, Sigma-Aldrich).
The top 25 μL of the supernatant was then transferred to a 0.5 ml microfuge tube and the aliquots frozen at −80.
For the glutamate assay, samples of the media were thawed, pipetted up and down to ensure mixing and 20 μl added to 80 μl of the Amplex Red assay mix in a 96-well microtiter plate (catalog #M4436, Greiner, Frickenhausen, Germany). The reactions were covered in aluminum foil and allowed to proceed for 30 minutes at 37° C. and then fluorescence measured as described above.
Concurrently with analysis of the astrocyte samples, a standard curve of the Amplex Red glutamate assay in the minimal media was prepared following the manufacturer's instructions and using known concentrations of glutamate: 0, 0.5, 1, 2 and 4 μM. Table 19 gives the numerical results of the standard curve assay and the results are depicted graphically in FIG. 17.

[8] = published results in the SOD1 mouse model
[9] = 100 ng/ml, complete media, 18 hours
[10] = 100 ng/ml, minimal media, 18 hours

Molecule: O=C(O)c1cc(/N=N/c2ccc(S(=O)(=O)Nc3ccccn3)cc2)ccc1O [Amorphous sulfasalazine, sulfasalazine]
- Cmax GB [1]: 154 µg/mL
- AUC [1]: 30,300 min * ug/mL
- Cmax IB [1]: 372 µg/mL

Molecule: O=C(O)c1cc(/N=N/c2ccc(S(=O)(=O)Nc3ccccn3)cc2)ccc1O [Crystalline sulfasalazine, sulfasalazine]
- Cmax GB [1]: 15 µg/mL
- AUC [1]: 22,200 min * ug/mL
- Cmax IB [1]: 282 µg/mL

Molecule: Nc1ccc(S(=O)(=O)Nc2ccccn2)cc1 [Sulfapyridine, sulfapyridine]
- oral bioavailability (reaching the circulation following oral dosing) [2]: > 70%

Molecule: CC(C)Cc1ccc(C(C)C(=O)O)cc1 (stereo not shown) [ibuprofen]
- decreased lifespan after onset of neurological disease [3, 8]: 10%

Molecule: Nc1nc2ccc(OC(F)(F)F)cc2s1 [riluzole]
- increased lifespan after onset of neurological disease [3, 8]: 1%
- increased absolute lifespan ([3]; same SOD1 model under similar conditions, Lincecum et al.): 1.6%

Molecule: IFN-gamma: inflammatory cytokine
- IL1-beta, Percent change normalized ([4]; 30 ng/ml, complete media): 2,043%
- IL1-beta, Percent change normalized [4, 9]: 446%
- xCT, Change in Ct normalized to control gene ([5]; 30 ng/ml, complete media): 1.417
- xCT, Fold change normalized ([5]; 30 ng/ml, complete media): 2.7
- xCT, Percent change normalized ([5]; 30 ng/ml, complete media): 270%
- xCT, Change in Ct normalized to control gene [5, 9]: 1.636
- xCT, Fold (absolute) change normalized [5, 9]: 3.1
- xCT, Percent change normalized [5, 9]: 311%

Molecule: IL-17A: inflammatory cytokine
- xCT, Change in Ct normalized to control gene ([6]; 100 ng/ml): 0.351
- xCT, Fold change normalized ([6]; 100 ng/ml): 1.28
- xCT, Percent change normalized ([6]; 100 ng/ml): 128%
- Lcn-2, Percent change normalized ([7]; 100 ng/ml): 123%
- xCT, Change in Ct normalized to control gene ([5]; 10 ng/ml, complete media): 1.652
- xCT, Fold change normalized ([5]; 10 ng/ml, complete media): 3.1
- xCT, Percent change normalized ([5]; 10 ng/ml, complete media): 314%

Molecule: Poly I/C
- xCT, Change in Ct normalized to control gene ([6]; 10 ug/ml): 1.471
- xCT, Fold change normalized ([6]; 10 ug/ml): 2.77
- xCT, Percent change normalized ([6]; 10 ug/ml): 277%
- IL1-beta, Percent change normalized [4, 9]: 1,900%
- IL1-beta, Percent change normalized [4, 10]: 1,099%
- Lcn-2, Percent change normalized ([7]; 10 ug/ml): 76%
- xCT, Change in Ct normalized to control gene [5, 9]: 6.186
- xCT, Fold (absolute) change normalized [5, 9]: 72.8
- xCT, Percent change normalized [5, 9]: 7,281%
- xCT, Change in Ct normalized to control gene [5, 10]: 3.619
- xCT, Fold (absolute) change normalized [5, 10]: 12.3
- xCT, Percent change normalized [5, 10]: 1229%

Molecule: TNF-alpha
- xCT, Change in Ct normalized to control gene ([6]; 100 ng/ml): 1.376
- xCT, Fold change normalized ([6]; 100 ng/ml): 2.60
- xCT, Percent change normalized ([6]; 100 ng/ml): 260%
- IL1-beta, Percent change normalized [4, 9]: 3,000%
- Lcn-2, Percent change normalized ([7]; 100 ng/ml): 244%
- xCT, Change in Ct normalized to control gene [5, 9]: 3.214
- xCT, Fold (absolute) change normalized [5, 9]: 9.3
- xCT, Percent change normalized [5, 9]: 930%
- Calculated glutamate levels (xCT; 30 minutes in minimal media): 2.88 µM
- Fluorescence units (xCT; 30 minutes in minimal media): 13398
- Calculated glutamate levels (xCT; 120 minutes in minimal media): 9.05 µM
- Fluorescence units (xCT; 120 minutes in minimal media): 34307
- Calculated glutamate levels (xCT; 240 minutes in minimal media): 13.82 µM
- Fluorescence units (xCT; 240 minutes in minimal media): 50468

B1: IL-4: anti-inflammatory cytokine, tested as a control (protein, UniProt P05112 25-153, looked up)
Interleukin-4: HKCDITLQEIIKTLNSLTEQKTLCTELTVTDIFAASKNTTEKETFCRAATVLRQFYSHHEKDTRCLGATAQQFHRHKQLIRFLKRLDRNLWGLAGLNSCPVKEANQSTLENFLERLKTIMREKYSKCSS
- xCT, Change in Ct normalized to control gene ([6]; 100 ng/ml): −0.097
- xCT, Fold change normalized ([6]; 100 ng/ml): 0.93
- xCT, Percent change normalized ([6]; 100 ng/ml): 93%
- Lcn-2, Percent change normalized ([7]; 100 ng/ml): 103%
- xCT, Change in Ct normalized to control gene [5, 9]: −0.147
- xCT, Fold (absolute) change normalized [5, 9]: 0.9
- xCT, Percent change normalized [5, 9]: 90%
